According to article PMC7162861, “Synthesis, cytotoxicity, pharmacokinetic profile, binding with DNA and BSA of new imidazo[1,2-a]pyrazine-benzo[d]imidazol-5-yl hybrids” (Scientific Reports, 2020):

What was measured:
[1] = test system: UACC-62; assay: NCI cytotoxicity screen, Melanoma panel; type: cell-based, human; details: five dose 0.01–100 µM
Procedure: (§1) Cytotoxicity was performed at National Cancer Institute (NCI), Bethesda, USA as per their protocols.

[2] = test system: M14; assay: NCI cytotoxicity screen, Melanoma panel; type: cell-based, human
Procedure: as §1

[3] = Experimental log P, shake-flask method; type: physicochemical; details: n-octanol/phosphate buffer pH 7.4, read-out: Exp. Log P
How it was run: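 Shake-flask partitioning between n-octanol and phosphate buffer pH 7.4, shaken 50 min, then centrifuged 35 min at 2500 rpm. Buffer-phase absorbance at each compound's λmax measured before and after partitioning. P calculated from absorbance drop and phase volume ratio.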

[4] = test system: A549/ATCC; assay: NCI cytotoxicity screen, Non-Small Cell Lung Cancer panel; type: cell-based
Procedure: as §1

[5] = test system: HOP-62; assay: as above; type: cell-based
Procedure: as §1

[6] = test system: HOP-92; assay: as above; type: cell-based
Procedure: as §1

[7] = test system: EXVX; assay: as above; type: cell-based; details: Homo sapiens
Procedure: as §1

[8] = test system: NCI-H460; assay: as above; type: cell-based
Procedure: as §1

[9] = test system: PC-3; assay: NCI cytotoxicity screen, Prostate Cancer panel; type: cell-based, human; details: five dose 0.01–100 µM
Procedure: as §1

[10] = test system: DU-145; assay: NCI cytotoxicity screen, Prostate Cancer panel; type: cell-based, human
Procedure: as §1

[11] = test system: HL-60(TB); assay: NCI cytotoxicity screen, Leukemia panel; type: cell-based
Procedure: as §1

[12] = test system: MOLT-4; assay: NCI cytotoxicity screen, Leukemia panel; type: cell-based; details: MOLT-4
Procedure: as §1

[13] = test system: CCRF-CEM; assay: NCI cytotoxicity screen, Leukemia panel; type: cell-based
Procedure: as §1

[14] = test system: RPMI-8226; assay: NCI cytotoxicity screen, Leukemia panel; type: cell-based; details: for GI50: RPMI-8226, RPMI-8226
Procedure: as §1

[15] = test system: SR; assay: NCI cytotoxicity screen, Leukemia panel; type: cell-based
Procedure: as §1

[16] = test system: K-562; assay: NCI cytotoxicity screen, Leukemia panel; type: cell-based
Procedure: as §1

[17] = test system: U251; assay: NCI cytotoxicity screen, CNS Cancer panel; type: cell-based
Procedure: as §1

[18] = test system: SF-295; assay: NCI cytotoxicity screen, CNS Cancer panel; type: cell-based
Procedure: as §1

[19] = test system: SF-539; assay: NCI cytotoxicity screen, CNS Cancer panel; type: cell-based
Procedure: as §1

[20] = test system: SNB-19; assay: NCI cytotoxicity screen, CNS Cancer panel; type: cell-based
Procedure: as §1

[21] = test system: SF-268; assay: NCI cytotoxicity screen, CNS Cancer panel; type: cell-based
Procedure: as §1

[22] = test system: SNB-75; assay: NCI cytotoxicity screen, CNS Cancer panel; type: cell-based
Procedure: as §1

[23] = Homo sapiens, five dose 0.01–100 µM, read-out: LC50 (the source's name)
[24] = Homo sapiens, five dose 0.01–100 µM
[25] = Homo sapiens, read-out: Percent growth inhibition

## c1cn2cc(-c3ccc4ncn(C5CCCCC5)c4c3)nc(-c3ccc4c(c3)ncn4C3CCCCC3)c2n1 [Compound 31, 8-(1-cyclohexyl-1H-benzo[d]imidazol-5-yl)-6-(1-cyclohexyl-1H-benzo[d]imidazol-6-yl)imidazo[1,2-a]pyrazine]
[1]
  TGI: 3360 nM
[2]; Homo sapiens
  GI50: 1770 nM
[2]; five dose 0.01–100 µM
  TGI: 3650 nM
[3]
  logP: 1.77
[4]; A549/ATCC, five dose 0.01–100 µM
  TGI: 3540 nM
[4]; Homo sapiens, A549
  GI50: 1940 nM
[4]; Homo sapiens, A549/ATCC, five dose 0.01–100 µM, read-out: LC50 (the source's name)
  CC50: 6460 nM
[5]; Homo sapiens
  GI50: 2000 nM
[5]; [23]
  CC50: 6900 nM
[5]; five dose 0.01–100 µM
  TGI: 3720 nM
[6]; Homo sapiens
  GI50: 1540 nM
[6]; [24]
  LC50: 6730 nM
[6]; five dose 0.01–100 µM
  TGI: 3220 nM
[7]
  GI50: 1970 nM
[8]; Homo sapiens
  GI50: 1980 nM
[8]; [23]
  CC50: 8160 nM
[8]; five dose 0.01–100 µM
  TGI: 4020 nM
[9]; Homo sapiens
  GI50: 1700 nM
[9]
  TGI: 3930 nM
[10]; Homo sapiens
  GI50: 1770 nM
[10]; five dose 0.01–100 µM
  TGI: 3280 nM
[11]; HL-60(TB), five dose 0.01–100 µM
  TGI: 4570 nM
[11]; Homo sapiens, HL-60
  GI50: 1840 nM
[11]; Homo sapiens, HL-60(TB), five dose 0.01–100 µM, read-out: LC50 (the source's name)
  CC50: > 1000 nM
[12]; Homo sapiens
  GI50: 1640 nM
[12]; [23]
  CC50: > 1000 nM
[12]; five dose 0.01–100 µM
  TGI: 5220 nM
[13]; Homo sapiens
  GI50: 1690 nM
[13]; [23]
  CC50: > 1000 nM
[13]; [25]
  inhibition at 10 µM: 95.7%
[13]; five dose 0.01–100 µM
  TGI: 6080 nM
[14]; Homo sapiens, five dose
  GI50: 806 nM
[14]; [24]
  GI50: 800 nM
[14]; Homo sapiens, RPMI-8226, five dose 0.01–100 µM, read-out: LC50 (the source's name)
  CC50: > 1000 nM
[14]; RPMI-8226, five dose 0.01–100 µM
  TGI: 3990 nM
[15]; Homo sapiens
  GI50: 2870 nM
[15]; [23]
  CC50: > 1000 nM
[15]; [25]
  inhibition at 10 µM: 97.5%
[15]; five dose 0.01–100 µM
  TGI: >1000 nM
[16]; Homo sapiens, K562
  GI50: 2570 nM
[16]; Homo sapiens, K562, K-562, five dose 0.01–100 µM, read-out: LC50 (the source's name)
  CC50: > 1000 nM
[16]; K-562, five dose 0.01–100 µM
  TGI: >1000 nM
[17]; Homo sapiens, U-251
  GI50: 1910 nM
[17]; Homo sapiens, U-251, U251, five dose 0.01–100 µM, read-out: LC50 (the source's name)
  CC50: 6980 nM
[17]; U251, five dose 0.01–100 µM
  TGI: 3650 nM
[18]; Homo sapiens
  GI50: 1710 nM
[18]; [23]
  CC50: 5800 nM
[18]; five dose 0.01–100 µM
  TGI: 3150 nM
[19]; Homo sapiens
  GI50: 1630 nM
[19]; [24]
  LC50 (concentration killing 50% of cells): 6100 nM
[19]; five dose 0.01–100 µM
  TGI: 3150 nM
[20]; Homo sapiens, SNB-19
  GI50: 2110 nM
[20]; Homo sapiens, SNB-19, read-out: Percent growth inhibition
  inhibition at 10 µM: 93.4%
[20]; SNB-19, five dose 0.01–100 µM
  TGI: 4950 nM
[21]; Homo sapiens
  GI50: 1590 nM
[21]; [23]
  CC50: 6230 nM
[21]; five dose 0.01–100 µM
  TGI: 3150 nM
[22]; Homo sapiens
  GI50: 1390 nM
[22]; [24]
  LC50: 6770 nM
[22]; five dose 0.01–100 µM
  TGI: 3070 nM
